Results taken from BindingDB's records for doi:10.1016/0166-4328(96)00087-3 (Smithkline Beecham Pharmaceuticals, 1996).
Several values for one entry are separate records, joined by “and”; a condition that tells them apart may be missing. Identical values can stand only once.

Key:
[1] = target: 5-hydroxytryptamine receptor 4 (Sus scrofa, UniProt Q29006)
[2] = target: 5-hydroxytryptamine receptor 2C (Sus scrofa, UniProt G7ZKZ7)
D(1A) dopamine receptor [3] = target: D(1A) dopamine receptor (Homo sapiens, UniProt P21728)
Histamine H1 receptor = Histamine H1 receptor (Cavia porcellus, UniProt P31389)
Chain of Histamine H1 receptor (P31389 whole entry): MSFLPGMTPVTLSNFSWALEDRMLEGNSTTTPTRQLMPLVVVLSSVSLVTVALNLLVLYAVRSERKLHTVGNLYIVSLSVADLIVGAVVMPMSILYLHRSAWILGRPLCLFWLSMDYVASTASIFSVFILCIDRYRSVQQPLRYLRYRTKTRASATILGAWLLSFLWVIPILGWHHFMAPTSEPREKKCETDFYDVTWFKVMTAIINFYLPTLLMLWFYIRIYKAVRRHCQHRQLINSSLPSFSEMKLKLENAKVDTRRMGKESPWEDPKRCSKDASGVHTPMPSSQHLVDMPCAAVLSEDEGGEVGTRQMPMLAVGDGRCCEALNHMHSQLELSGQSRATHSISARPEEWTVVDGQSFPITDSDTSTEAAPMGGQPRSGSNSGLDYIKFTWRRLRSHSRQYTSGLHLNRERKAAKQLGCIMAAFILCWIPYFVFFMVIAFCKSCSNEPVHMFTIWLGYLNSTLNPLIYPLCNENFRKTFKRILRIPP

[4] = target: Alpha-2C adrenergic receptor (Rattus norvegicus, UniProt P22086)
Chain of Alpha-2C adrenergic receptor (P22086 whole entry): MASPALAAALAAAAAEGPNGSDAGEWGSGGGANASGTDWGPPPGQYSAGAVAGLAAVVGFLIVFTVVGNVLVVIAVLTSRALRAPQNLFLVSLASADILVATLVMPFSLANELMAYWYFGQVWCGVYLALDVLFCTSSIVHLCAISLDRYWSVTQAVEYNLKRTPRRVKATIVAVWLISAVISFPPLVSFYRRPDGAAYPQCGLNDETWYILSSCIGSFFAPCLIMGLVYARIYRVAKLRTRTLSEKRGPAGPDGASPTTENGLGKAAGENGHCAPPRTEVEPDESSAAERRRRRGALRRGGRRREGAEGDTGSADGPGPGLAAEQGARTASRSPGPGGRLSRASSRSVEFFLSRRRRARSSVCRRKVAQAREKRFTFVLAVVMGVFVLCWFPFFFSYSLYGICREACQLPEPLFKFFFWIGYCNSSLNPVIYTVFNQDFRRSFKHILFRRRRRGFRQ

[5] = target: 5-hydroxytryptamine receptor 2A (Rattus norvegicus, UniProt P14842)
Chain of 5-hydroxytryptamine receptor 2A (Rattus norvegicus, UniProt P14842) (P14842 whole entry): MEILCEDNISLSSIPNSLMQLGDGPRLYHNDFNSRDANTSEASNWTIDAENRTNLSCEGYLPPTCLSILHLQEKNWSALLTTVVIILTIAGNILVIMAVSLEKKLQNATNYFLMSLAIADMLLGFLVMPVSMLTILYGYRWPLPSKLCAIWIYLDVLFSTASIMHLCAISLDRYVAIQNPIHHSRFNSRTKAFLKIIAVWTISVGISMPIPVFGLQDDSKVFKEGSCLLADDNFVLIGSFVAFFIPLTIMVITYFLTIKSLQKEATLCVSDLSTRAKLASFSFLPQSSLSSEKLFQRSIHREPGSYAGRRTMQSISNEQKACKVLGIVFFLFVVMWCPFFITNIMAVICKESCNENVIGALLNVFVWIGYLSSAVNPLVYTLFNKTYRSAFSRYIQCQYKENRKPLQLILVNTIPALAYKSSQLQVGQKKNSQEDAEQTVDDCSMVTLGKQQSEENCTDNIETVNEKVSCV

[6] = target: Gamma-aminobutyric acid receptor subunit alpha-1 (Rattus norvegicus, UniProt P62813)
[7] = target: Alpha-1A adrenergic receptor (Rattus norvegicus, UniProt P43140)
Chain of Alpha-1A adrenergic receptor (Rattus norvegicus, UniProt P43140) (P43140 whole entry): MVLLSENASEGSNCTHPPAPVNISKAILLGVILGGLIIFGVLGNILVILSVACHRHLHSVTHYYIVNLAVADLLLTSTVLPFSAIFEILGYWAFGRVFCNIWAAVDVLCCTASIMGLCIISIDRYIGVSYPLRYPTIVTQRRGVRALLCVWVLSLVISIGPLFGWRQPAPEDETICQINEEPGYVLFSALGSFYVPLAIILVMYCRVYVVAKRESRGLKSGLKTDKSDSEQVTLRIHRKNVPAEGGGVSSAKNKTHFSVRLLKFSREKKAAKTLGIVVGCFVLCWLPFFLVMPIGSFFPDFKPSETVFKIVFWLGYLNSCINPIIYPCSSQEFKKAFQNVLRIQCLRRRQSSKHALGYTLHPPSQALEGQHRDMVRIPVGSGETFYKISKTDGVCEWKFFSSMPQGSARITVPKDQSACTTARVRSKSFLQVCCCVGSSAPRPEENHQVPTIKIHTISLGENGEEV

[8] = target: 5-hydroxytryptamine receptor 1B (Homo sapiens, UniProt P28222)
D(2) dopamine receptor [9] = target: D(2) dopamine receptor (Homo sapiens, UniProt P14416)
Chain of D(2) dopamine receptor (Homo sapiens, UniProt P14416) (P14416 whole entry): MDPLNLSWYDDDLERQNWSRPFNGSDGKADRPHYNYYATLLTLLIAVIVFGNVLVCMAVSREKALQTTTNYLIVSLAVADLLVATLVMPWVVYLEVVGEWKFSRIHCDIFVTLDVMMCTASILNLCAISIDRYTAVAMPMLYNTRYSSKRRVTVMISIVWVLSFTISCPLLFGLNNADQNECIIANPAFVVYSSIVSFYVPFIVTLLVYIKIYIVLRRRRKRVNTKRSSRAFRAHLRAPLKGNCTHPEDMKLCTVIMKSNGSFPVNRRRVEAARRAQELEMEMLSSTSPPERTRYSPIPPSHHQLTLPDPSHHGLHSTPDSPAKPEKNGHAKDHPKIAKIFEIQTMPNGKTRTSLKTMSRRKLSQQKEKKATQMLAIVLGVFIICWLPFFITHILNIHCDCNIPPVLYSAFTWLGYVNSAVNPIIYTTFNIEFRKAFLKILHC

[10] = target: 5-hydroxytryptamine receptor 2B (Rattus norvegicus, UniProt P30994)
Chain of 5-hydroxytryptamine receptor 2B (P30994 whole entry): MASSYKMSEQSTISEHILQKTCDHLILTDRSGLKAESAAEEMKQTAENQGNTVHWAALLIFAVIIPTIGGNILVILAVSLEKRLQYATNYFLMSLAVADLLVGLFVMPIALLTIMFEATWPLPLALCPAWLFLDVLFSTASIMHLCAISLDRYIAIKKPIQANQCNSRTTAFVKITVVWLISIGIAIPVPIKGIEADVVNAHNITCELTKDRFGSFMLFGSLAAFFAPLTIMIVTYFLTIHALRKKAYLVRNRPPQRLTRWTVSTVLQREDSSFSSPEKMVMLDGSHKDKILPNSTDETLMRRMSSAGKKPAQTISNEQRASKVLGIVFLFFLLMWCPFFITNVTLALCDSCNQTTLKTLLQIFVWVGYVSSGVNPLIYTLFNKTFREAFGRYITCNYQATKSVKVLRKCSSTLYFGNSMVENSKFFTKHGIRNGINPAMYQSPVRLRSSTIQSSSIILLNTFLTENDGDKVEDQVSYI

[11] = target: 5-hydroxytryptamine receptor 1E (Homo sapiens, UniProt P28566)
[12] = target: 5-hydroxytryptamine receptor 1D (Homo sapiens, UniProt P28221)
Histamine H2 receptor = Histamine H2 receptor (Oryctolagus cuniculus, UniProt G1TWL8)
D(2) dopamine receptor [13] = target: D(2) dopamine receptor (Rattus norvegicus, UniProt P61169)
[14] = target: 5-hydroxytryptamine receptor 1B (Oryctolagus cuniculus, UniProt P49144)
[15] = target: 5-hydroxytryptamine receptor 1A (Rattus norvegicus, UniProt P19327)
Chain of 5-hydroxytryptamine receptor 1A (P19327 whole entry): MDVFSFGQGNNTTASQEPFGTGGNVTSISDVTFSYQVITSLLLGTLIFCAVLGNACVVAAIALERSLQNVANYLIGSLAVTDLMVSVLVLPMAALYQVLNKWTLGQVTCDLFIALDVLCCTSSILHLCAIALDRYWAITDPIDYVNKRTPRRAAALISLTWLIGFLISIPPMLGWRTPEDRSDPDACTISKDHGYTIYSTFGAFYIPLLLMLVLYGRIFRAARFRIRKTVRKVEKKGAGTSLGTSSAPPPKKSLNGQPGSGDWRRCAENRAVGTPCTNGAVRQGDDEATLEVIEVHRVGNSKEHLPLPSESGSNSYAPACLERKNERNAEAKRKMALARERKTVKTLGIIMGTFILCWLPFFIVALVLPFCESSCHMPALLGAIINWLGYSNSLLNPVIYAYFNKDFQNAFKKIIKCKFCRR

[16] = target: Muscarinic acetylcholine receptor M3 (Sus scrofa, UniProt P11483)
D(1A) dopamine receptor [17] = target: D(1A) dopamine receptor (Rattus norvegicus, UniProt P18901)
Chain of D(1A) dopamine receptor (Rattus norvegicus, UniProt P18901) (P18901 whole entry): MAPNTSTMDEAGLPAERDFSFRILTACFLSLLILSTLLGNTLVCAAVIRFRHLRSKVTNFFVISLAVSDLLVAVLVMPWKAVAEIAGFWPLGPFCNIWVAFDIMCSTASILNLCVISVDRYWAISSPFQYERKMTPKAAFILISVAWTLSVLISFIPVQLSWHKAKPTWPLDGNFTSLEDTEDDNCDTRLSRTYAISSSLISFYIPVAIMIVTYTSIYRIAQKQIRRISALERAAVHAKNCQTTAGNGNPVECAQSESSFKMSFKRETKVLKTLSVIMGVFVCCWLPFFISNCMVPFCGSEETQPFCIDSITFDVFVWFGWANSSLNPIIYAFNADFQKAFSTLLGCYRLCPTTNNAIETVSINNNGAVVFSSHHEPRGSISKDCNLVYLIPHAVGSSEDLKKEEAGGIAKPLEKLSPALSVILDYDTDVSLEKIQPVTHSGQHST

[18] = target: 5-hydroxytryptamine 1D receptor (Bos taurus, UniProt Q8MI13)
Chain of 5-hydroxytryptamine 1D receptor (Q8MI13 whole entry): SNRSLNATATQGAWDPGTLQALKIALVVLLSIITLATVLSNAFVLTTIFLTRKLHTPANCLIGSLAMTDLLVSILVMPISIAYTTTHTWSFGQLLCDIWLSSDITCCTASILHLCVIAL

[19] = target: 5-hydroxytryptamine receptor 2A (Oryctolagus cuniculus, UniProt G1SYA7)
[20] = target: Alpha-1A adrenergic receptor (Oryctolagus cuniculus, UniProt O02824)
[21] = target: Beta-2 adrenergic receptor (Sylvilagus floridanus, UniProt Q9BFY9)
[22] = target: Beta-1 adrenergic receptor (Cavia porcellus, UniProt B0FL73)
Chain of Beta-1 adrenergic receptor (Cavia porcellus, UniProt B0FL73) (B0FL73 whole entry): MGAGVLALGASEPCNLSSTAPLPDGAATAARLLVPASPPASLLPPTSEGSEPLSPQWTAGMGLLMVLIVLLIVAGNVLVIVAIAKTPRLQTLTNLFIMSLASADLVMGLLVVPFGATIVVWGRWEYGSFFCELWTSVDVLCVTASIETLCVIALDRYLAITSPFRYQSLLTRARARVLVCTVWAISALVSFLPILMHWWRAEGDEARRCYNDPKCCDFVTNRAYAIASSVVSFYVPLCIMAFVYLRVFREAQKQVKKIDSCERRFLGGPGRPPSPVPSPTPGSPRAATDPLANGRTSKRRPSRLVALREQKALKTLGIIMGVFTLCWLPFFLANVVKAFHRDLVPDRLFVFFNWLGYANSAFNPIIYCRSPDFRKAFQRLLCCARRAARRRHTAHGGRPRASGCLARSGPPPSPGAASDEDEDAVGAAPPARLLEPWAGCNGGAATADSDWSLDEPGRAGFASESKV

[23] = target: 5-hydroxytryptamine receptor 2C (Rattus norvegicus, UniProt P08909)
[24] = target: Alpha-2A adrenergic receptor (Homo sapiens, UniProt P08913)
[25] = target: 5-hydroxytryptamine receptor 3A (Rattus norvegicus, UniProt P35563)
[26] = target: Beta-2 adrenergic receptor (Rattus norvegicus, UniProt P10608)
[27] = target: 5-hydroxytryptamine receptor 2C (Homo sapiens, UniProt P28335)
[28] = target: 5-hydroxytryptamine receptor 1D (Cavia porcellus, UniProt Q60484)
[29] = target: Alpha-2B adrenergic receptor (Rattus norvegicus, UniProt P19328)
[30] = target: Beta-1 adrenergic receptor (Rattus norvegicus, UniProt P18090)

Chain of 5-hydroxytryptamine receptor 4 (Q29006 whole entry): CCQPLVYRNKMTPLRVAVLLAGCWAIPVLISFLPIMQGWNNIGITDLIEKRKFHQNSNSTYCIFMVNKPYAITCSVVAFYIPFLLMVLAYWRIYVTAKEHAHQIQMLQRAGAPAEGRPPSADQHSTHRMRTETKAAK
Chain of 5-hydroxytryptamine receptor 2C (Sus scrofa, UniProt G7ZKZ7) (G7ZKZ7 whole entry): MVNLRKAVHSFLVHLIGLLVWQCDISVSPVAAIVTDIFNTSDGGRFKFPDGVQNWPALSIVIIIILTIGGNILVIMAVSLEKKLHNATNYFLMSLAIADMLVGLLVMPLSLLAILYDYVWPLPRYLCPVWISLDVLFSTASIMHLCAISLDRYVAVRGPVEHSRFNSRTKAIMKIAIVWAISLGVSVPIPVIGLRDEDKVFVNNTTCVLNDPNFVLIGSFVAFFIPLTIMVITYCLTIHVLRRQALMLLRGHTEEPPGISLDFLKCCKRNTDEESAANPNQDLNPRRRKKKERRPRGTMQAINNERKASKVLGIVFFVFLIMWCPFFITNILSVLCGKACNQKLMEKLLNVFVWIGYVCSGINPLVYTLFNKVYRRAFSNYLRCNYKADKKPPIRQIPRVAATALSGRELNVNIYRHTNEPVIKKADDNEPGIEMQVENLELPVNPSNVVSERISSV

Structure (SMILES): Cc1cc(NC(=O)Nc2ccc3c(ccn3C)c2)sn1 [CAS_3277600]
- Ki [1]: > 10 µM
- Ki [2]: 1 µM
- Ki (D(1A) dopamine receptor [3]): > 10 µM
- Ki (Histamine H1 receptor): > 10 µM
- Ki [4]: 1 µM
- Ki [5]: 5.01 µM
- Ki [6]: > 10 µM
- Ki [7]: 1 µM
- Ki [8]: > 10 µM
- Ki (D(2) dopamine receptor [9]): > 10 µM
- Ki [10]: 0.0159 µM and 0.0501 µM
- Ki [11]: > 10 µM

Structure (SMILES): CC(N)Cc1c[nH]c2ccc(OCc3cccs3)cc12 (stereo not drawn) [NSC_5311036]
- Ki [12]: 0.251 µM
- Ki (Histamine H2 receptor): > 10 µM
- Ki (D(2) dopamine receptor [13]): > 10 µM
- Ki [1]: > 10 µM
- Ki [14]: > 10 µM
- Ki [15]: 1.26 µM
- Ki [16]: > 10 µM
- Ki (D(1A) dopamine receptor [17]): > 10 µM
- Ki (Histamine H1 receptor): > 10 µM
- Ki [4]: > 10 µM
- Ki [5]: 3.98 µM
- Ki [18]: 0.501 µM
- Ki [19]: > 10 µM
- Ki [20]: > 10 µM
- Ki [21]: > 10 µM
- Ki [22]: > 10 µM
- Ki [10]: 0.0251 µM

Structure (SMILES): Cn1ccc2cc(NC(=O)Nc3cccnc3)ccc21 [SB 200646]
- Ki [23]: 0.126 µM
- Ki [24]: > 10 µM
- Ki [25]: > 10 µM
- Ki [15]: > 10 µM
- Ki (D(1A) dopamine receptor [17]): > 10 µM
- Ki [5]: 6.31 µM and 5.01 µM
- Ki [26]: > 10 µM
- Ki [27]: 0.1 µM
- Ki [28]: > 10 µM
- Ki [7]: > 10 µM
- Ki (D(2) dopamine receptor [9]): > 10 µM
- Ki [29]: > 10 µM
- Ki [10]: 0.0316 µM and 0.0631 µM
- Ki [30]: > 10 µM
